# Measurements taken from ChEMBL document CHEMBL4665770, “Design and Discovery of Natural Cyclopeptide Skeleton Based Programmed Death Ligand 1 Inhibitor as Immune Modulator for Cancer Therapy” (J Med Chem, 2020).
# Square brackets hold non-standard residues; d marks the D form. Peptide text beside a SMILES is read from it. Orn = NCCC[C@H](N)C(=O)O
# Target: Programmed cell death protein 1/Programmed cell death 1 ligand 1 (Homo sapiens) (UniProt Q15116+Q9NZQ7)
# Assay: Inhibition of PD1-Tag2/PD-L1-Tag1 (unknown origin) protein-protein interaction at 20 uM preincubated for 15 mins followed by addition of anti-Tag1-Eu3+ and anti-Tag2-XL665 measured after 3 hrs by HTRF assay relative to control
# Format: protein-complex assay
# Details: time 195.0 min
row,SMILES,inhibition [%]
1,CC(C)C[C@@H]1NC(=O)[C@H](COP(=O)(O)O)NC(=O)[C@H]([C@@H](C)O)NC(=O)[C@@H]2CCCN2C(=O)[C@@H](Cc2ccccc2)NC(=O)[C@H](CC(C)C)NC(=O)[C@H](CCCNC(=N)N)NC(=O)[C@H](C(C)C)NC(=O)[C@@H]2CCCN2C(=O)[C@@H](Cc2ccccc2)NC1=O,26
2,CC(NCCCC[C@@H]1NC(=O)[C@@H](Cc2ccccc2)NC(=O)[C@H](CC(C)C)N(C)C(=O)[C@H](CC(=O)O)NC(=O)[C@H]([C@@H](C)O)NC(=O)[C@@H]2CCCN2C(=O)[C@@H](Cc2c[nH]c3ccccc23)NC(=O)[C@H](CC(C)C)NC(=O)[C@H](CCCNC(=N)N)NC(=O)[C@H](C(C)C)NC1=O)=C1C(=O)CC(C)(C)CC1=O,19.5
3,CC(C)C[C@@H]1NC(=O)[C@H](CCCNC(=N)N)NC(=O)[C@H](C(C)C)NC(=O)[C@H](CC(=O)O)NC(=O)[C@@H]2CCCN2C(=O)[C@@H](Cc2ccccc2)NC(=O)[C@H](CC(C)C)NC(=O)[C@H]([C@@H](C)O)NC(=O)[C@@H]2CCCN2C(=O)[C@@H](Cc2ccccc2)NC1=O (cyclo(DVRL[dF]PTL[dF]P)),1.93
4,CC(C)C[C@@H]1NC(=O)[C@H](CCCNC(=N)N)NC(=O)[C@H](C(C)C)NC(=O)[C@@H]2CCCN2C(=O)[C@@H](Cc2ccccc2)NC(=O)[C@H](CC(C)C)NC(=O)[C@H]([C@@H](C)O)NC(=O)[C@H](CC(=O)O)NC(=O)[C@@H]2CCCN2C(=O)[C@@H](Cc2ccccc2)NC1=O (cyclo(DTL[dF]PVRL[dF]P)),23.9
5,CC(C)C[C@@H]1NC(=O)[C@H](CCCNC(=N)N)NC(=O)[C@H](C(C)C)NC(=O)[C@H](C)NC(=O)[C@@H](Cc2ccccc2)NC(=O)[C@H](C)NC(=O)[C@H](CCCNC(=N)N)NC(=O)[C@H](C(C)C)NC(=O)[C@@H]2CCCN2C(=O)[C@@H](Cc2ccccc2)NC1=O (cyclo(AVRL[dF]PVRA[dF])),-0.657
6,CC(C)C[C@@H]1NC(=O)[C@H](CCCNC(=N)N)NC(=O)[C@H]([C@@H](C)O)NC(=O)[C@@H]2CCCN2C(=O)[C@@H](Cc2ccccc2)NC(=O)[C@H](CC(C)C)NC(=O)[C@H](CC(=O)O)NC(=O)[C@H](C)NC(=O)[C@@H]2CCCN2C(=O)[C@@H](Cc2ccccc2)NC1=O (cyclo(ADL[dF]PTRL[dF]P)),41.2
7,CC(C)C[C@@H]1NC(=O)[C@H](CCCNC(=N)N)NC(=O)[C@H](C(C)C)NC(=O)[C@@H]2CCCN2C(=O)[C@@H](Cc2ccccc2)NC(=O)[C@H](CC(C)C)NC(=O)[C@H]([C@@H](C)O)NC(=O)[C@@H]2CCCN2C(=O)[C@H](CC(=O)O)NC(=O)[C@@H](Cc2ccccc2)NC1=O (cyclo(DPTL[dF]PVRL[dF])),12.9
8,CC(C)C[C@@H]1NC(=O)[C@H](CCCNC(=N)N)NC(=O)[C@H](C(C)C)NC(=O)[C@@H]2CCCN2C(=O)[C@H](CC(=O)O)NC(=O)[C@@H](Cc2ccccc2)NC(=O)[C@H](CC(C)C)NC(=O)[C@H]([C@@H](C)O)NC(=O)[C@@H]2CCCN2C(=O)[C@@H](Cc2ccccc2)NC1=O (cyclo(DPVRL[dF]PTL[dF])),-0.905
9,CC(C)C[C@@H]1NC(=O)[C@H](CCCNC(=N)N)NC(=O)[C@H](C(C)C)NC(=O)[C@@H]2CCCN2C(=O)[C@@H](Cc2ccccc2)NC(=O)[C@H](CC(C)C)NC(=O)[C@H]([C@@H](C)O)NC(=O)[C@@H]2CCCN2C(=O)[C@@H](Cc2ccccc2)NC(=O)[C@H](CC(=O)O)NC1=O (cyclo(D[dF]PTL[dF]PVRL)),-2.13
10,CC(C)C[C@@H]1NC(=O)[C@H](CCCNC(=N)N)NC(=O)[C@H](C)NC(=O)[C@@H]2CCCN2C(=O)[C@@H](Cc2ccccc2)NC(=O)[C@H](C)NC(=O)[C@H](CCCNC(=N)N)NC(=O)[C@H](C(C)C)NC(=O)[C@@H]2CCCN2C(=O)[C@@H](Cc2ccccc2)NC1=O (cyclo(ARL[dF]PVRA[dF]P)),6.3
11,CC(C)C[C@@H]1NC(=O)[C@H](CCCNC(=N)N)NC(=O)[C@H](C(C)C)NC(=O)[C@@H]2CCCN2C(=O)[C@@H](Cc2ccccc2)NC(=O)[C@H](C)NC(=O)[C@H](CC(C)C)NC(=O)[C@H](C(C)C)NC(=O)[C@@H]2CCCN2C(=O)[C@@H](Cc2ccccc2)NC1=O (cyclo(A[dF]PVRL[dF]PVL)),4.03
12,CC(C)C[C@@H]1NC(=O)[C@H](CCCNC(=N)N)NC(=O)[C@H](C(C)C)NC(=O)[C@@H]2CCCN2C(=O)[C@@H](Cc2ccccc2)NC(=O)[C@H](CC(C)C)NC(=O)[C@H](CCCNC(=N)N)NC(=O)[C@H](C)NC(=O)[C@@H]2CCCN2C(=O)[C@@H](Cc2ccccc2)NC1=O (cyclo(ARL[dF]PVRL[dF]P)),22.4
13,CC(C)C[C@@H]1NC(=O)[C@H](CC(=O)O)NC(=O)[C@H]([C@@H](C)O)NC(=O)[C@@H]2CCCN2C(=O)[C@@H](Cc2ccccc2)NC(=O)[C@H](CC(C)C)NC(=O)[C@H](CCCNC(=N)N)NC(=O)[C@H](C(C)C)NC(=O)[C@@H]2CCCN2C(=O)[C@@H](Cc2c[nH]c3ccccc23)NC1=O (cyclo(DL[dW]PVRL[dF]PT)),35.8
14,CC(C)C[C@@H]1NC(=O)[C@H](CCCNC(=N)N)NC(=O)[C@H](C(C)C)NC(=O)[C@@H]2CCCN2C(=O)[C@@H](Cc2ccccc2)NC(=O)[C@H](C)NC(=O)[C@H](CCCNC(=N)N)NC(=O)[C@H](C)NC(=O)[C@@H]2CCCN2C(=O)[C@@H](Cc2ccccc2)NC1=O (cyclo(ARA[dF]PVRL[dF]P)),43.6
15,CC(C)C[C@@H]1NC(=O)[C@H](CCCNC(=N)N)NC(=O)[C@H](C(C)C)NC(=O)[C@@H]2CCCN2C(=O)[C@@H](Cc2ccccc2)NC(=O)[C@H](CC(C)C)NC(=O)[C@H](CCCNC(=N)N)NC(=O)[C@H](C(C)C)NC(=O)[C@H](C)NC(=O)[C@@H](Cc2ccccc2)NC1=O (cyclo(L[dF]AVRL[dF]PVR)),27.2
16,CC[C@H](C)[C@@H]1NC(=O)[C@@H]2CCCN2C(=O)[C@@H](Cc2ccccc2)NC(=O)[C@H](CC(C)C)NC(=O)[C@H](CC(=O)O)NC(=O)[C@H]([C@@H](C)O)NC(=O)[C@@H]2CCCN2C(=O)[C@@H](Cc2c[nH]c3ccccc23)NC(=O)[C@H](CC(C)C)NC(=O)[C@H](CCCNC(=N)N)NC1=O (cyclo(DL[dF]PIRL[dW]PT)),33.3
17,CC(C)C[C@@H]1NC(=O)[C@H](CCCNC(=N)N)NC(=O)[C@H](C(C)C)NC(=O)[C@@H]2CCCN2C(=O)[C@@H](Cc2ccccc2)NC(=O)[C@H](CC(C)C)NC(=O)[C@H](CCCNC(=N)N)NC(=O)[C@H](C(C)C)NC(=O)[C@@H]2CCCN2C(=O)[C@@H](C)NC1=O (cyclo(L[dA]PVRL[dF]PVR)),9.49
18,CC(C)C[C@@H]1NC(=O)[C@H](CCCNC(=N)N)NC(=O)[C@H](C(C)C)NC(=O)[C@@H]2CCCN2C(=O)[C@@H](Cc2ccccc2)NC(=O)[C@H](C)NC(=O)[C@H](CCC(=O)O)NC(=O)[C@H](C)NC(=O)[C@@H]2CCCN2C(=O)[C@@H](Cc2ccccc2)NC1=O,-6.08
19,CC(C)C[C@@H]1NC(=O)[C@H](CC(=O)O)NC(=O)[C@H]([C@@H](C)O)NC(=O)[C@@H]2CCCN2C(=O)[C@@H](Cc2c[nH]c3ccccc23)NC(=O)[C@H](CC(C)C)NC(=O)[C@H](CCCNC(=N)N)NC(=O)[C@H](C(C)C)NC(=O)[C@@H]2CCCN2C(=O)[C@@H](Cc2ccccc2)NC1=O (cyclo(DL[dF]PVRL[dW]PT)),43.4
20,CC(C)C[C@@H]1NC(=O)[C@H](CCCN)NC(=O)[C@H](C(C)C)NC(=O)[C@@H]2CCCN2C(=O)[C@@H](Cc2ccccc2)NC(=O)[C@H](CC(C)C)NC(=O)[C@H](CCCN)NC(=O)[C@H](C(C)C)NC(=O)[C@@H]2CCCN2C(=O)[C@@H](Cc2ccccc2)NC1=O (cyclo(V[Orn]L[dF]PV[Orn]L[dF]P)),6.86
21,CC(NCCCC[C@@H]1NC(=O)[C@@H](Cc2ccccc2)NC(=O)[C@H](CC(C)C)NC(=O)[C@H](CC(=O)O)NC(=O)[C@H]([C@@H](C)O)N(C)C(=O)[C@@H]2CCCN2C(=O)[C@@H](Cc2c[nH]c3ccccc23)NC(=O)[C@H](CC(C)C)NC(=O)[C@H](CCCNC(=N)N)NC(=O)[C@H](C(C)C)NC1=O)=C1C(=O)CC(C)(C)CC1=O,32.3
22,CC(C)C[C@@H]1NC(=O)[C@H](CCCNC(=N)N)NC(=O)[C@H](C(C)C)NC(=O)[C@@H]2CCCN2C(=O)[C@@H](Cc2ccccc2)NC(=O)[C@H](C)NC(=O)[C@H](C)NC(=O)[C@H](C(C)C)NC(=O)[C@@H]2CCCN2C(=O)[C@@H](Cc2ccccc2)NC1=O (cyclo(AA[dF]PVRL[dF]PV)),16.7
23,CCCC[C@@H]1NC(=O)[C@H](CC(=O)O)NC(=O)[C@H]([C@@H](C)O)NC(=O)[C@@H]2CCCN2C(=O)[C@@H](Cc2c[nH]c3ccccc23)NC(=O)[C@H](CC(C)C)NC(=O)[C@H](CCCNC(=N)N)NC(=O)[C@H](C(C)C)NC(=O)[C@H](CCCCNC(C)=C2C(=O)CC(C)(C)CC2=O)NC(=O)[C@@H](Cc2ccccc2)NC1=O,-2.81
24,CC(C)C[C@@H]1NC(=O)[C@H](CC(=O)O)NC(=O)[C@H](C(C)C)NC(=O)[C@@H]2CCCN2C(=O)[C@@H](Cc2ccccc2)NC(=O)[C@H](CC(C)C)NC(=O)[C@H](CCCNC(=N)N)NC(=O)[C@H](C(C)C)NC(=O)[C@@H]2CCCN2C(=O)[C@@H](CCC(=O)O)NC1=O (cyclo(DL[dE]PVRL[dF]PV)),22.5
25,CC(C)C[C@@H]1NC(=O)[C@H](CCCNC(=N)N)NC(=O)[C@H](C)NC(=O)[C@@H]2CCCN2C(=O)[C@@H](Cc2ccccc2)NC(=O)[C@H](C)NC(=O)[C@H](CCCNC(=N)N)NC(=O)[C@H](C)NC(=O)[C@@H]2CCCN2C(=O)[C@@H](Cc2ccccc2)NC1=O (cyclo(ARA[dF]PARL[dF]P)),0.7
26,CC(C)C[C@@H]1NC(=O)[C@H](CC(=O)O)NC(=O)[C@H]([C@@H](C)O)NC(=O)[C@@H]2CCCN2C(=O)[C@@H](Cc2ccccc2)NC(=O)[C@H](CC(C)C)NC(=O)[C@H](CC(=O)O)NC(=O)[C@H](C(C)C)NC(=O)[C@@H]2CCCN2C(=O)[C@@H](Cc2ccccc2)NC1=O,-6.65
27,CC(C)C[C@@H]1NC(=O)[C@H](CCCNC(=N)N)NC(=O)[C@H](C(C)C)NC(=O)[C@H](CC(C)C)NC(=O)[C@@H](Cc2ccccc2)NC(=O)[C@H](C)NC(=O)[C@H](CCCNC(=N)N)NC(=O)[C@H](C(C)C)NC(=O)[C@@H]2CCCN2C(=O)[C@@H](Cc2ccccc2)NC1=O (cyclo(A[dF]LVRL[dF]PVR)),11.2
28,CC(C)C[C@@H]1NC(=O)[C@H](CCCNC(=N)N)NC(=O)[C@H](C(C)C)NC(=O)[C@@H]2CCCN2C(=O)[C@@H](Cc2ccccc2)NC(=O)[C@H](CC(C)C)NC(=O)[C@H](CCCNC(=N)N)NC(=O)[C@H](C(C)C)NC(=O)[C@@H]2CCCN2C(=O)[C@@H](Cc2ccccc2)NC1=O (cyclo(L[dF]PVRL[dF]PVR)),-5.54
